{"source": "patent US20100291163A1", "about": "“ORAL CARE COMPOSITION COMPRISING NANOPARTICULATE TITANIUM DIOXIDE” (priority 2006, published 2010)", "test": "Microindentation as a measure of enamel hardness: softening by 1.0% w/w citric acid pH 3.8 after 120 s treatment", "set-up": "species or system human", "conditions": "FIG. 1", "experimental": "Human enamel chips were mounted in acrylic resin and polished flat using silicon carbide paper (1200 and 2400 grit). The specimens were then randomised and divided into three treatment groups (n=6). The treatment groups were 300 ppm fluoride (sodium fluoride); glycerin-coated titanium dioxide (with a mean particle size of 20 nm) aqueous suspension, 2.5% w/v (UV Titan M212, Kemira, Aston Chemicals); and deionised water. The baseline hardness of each specimen was determined using a Struers Duramin Microindentor, fitted with a Vickers diamond indenter. Hardness values were expressed as Vickers Hardness Numbers (VHN). A load of 1.961N was applied to the specimens, with a dwell time of 20 seconds.\nSpecimens were placed in 30 ml of one of the three test solutions with agitation for 120 seconds, before rinsing with deionised water. After treatment, microhardness measurements were repeated. Erosion was then performed by incubating the mounted specimens for 30 minutes in 10 ml of a 1.0% w/w solution of citric acid, pH 3.8. Specimens were removed from the erosive challenge at 10 minute intervals and the surface microhardness determined.\nThe values for enamel hardness have been normalised relative to the individual baseline microhardness values, thus data at subsequent time points reflects softening of the enamel. The error bars in FIG. 1 represent standard deviations.\nThe treatments tested in this study were: 2.5% w/v titanium dioxide aqueous suspensions, specifically 20 nm glycerin-coated titanium dioxide (UV Titan M212, Kemira, Aston Chemicals), 20 nm PVP-coated titanium dioxide (UV Titan M263, Kemira, Aston Chemicals), 17 nm Stearic acid-coated titanium dioxide (UV Titan M160, Kemira, Aston Chemicals) and 14 nm uncoated titanium dioxide (UV Titan X140, Kemira, Aston Chemicals). A glycerin only negative control was used in the study."}
{"smiles": "[F-].[Na+]", "note": "[300 ppm fluoride, sodium fluoride]", "values": [{"measurement": "enamel softening (microhardness normalised to baseline) during citric acid exposure", "setting": "1.0% w/w citric acid pH 3.8, up to 30 min, 120 s treatment", "result": "softened during the period in which they were exposed to citric acid, increasingly so as the incubation time increased"}, {"measurement": "enamel softening versus water-treated enamel", "setting": "after 20 and 30 mins in citric acid", "result": "softened significantly less than enamel treated with water"}, {"measurement": "extent of enamel softening, fluoride versus nanoparticle suspension", "setting": "after 20 mins citric acid exposure", "result": "equivalent in their extent of softening"}]}
